ChEMBL document CHEMBL1614629, “Extrapolation of human pharmacokinetic parameters from rat, dog, and monkey data: Molecular properties associated with extrapolative success or failure” (J Pharm Sci, 2005)

Columns and labels:
[1] = Clearance in human after iv administration; assay type: ADME, organism-based; conditions: in vivo
[2] = Clearance in dog after iv administration; assay type: ADME, organism-based, Canis lupus familiaris; conditions: in vivo
[3] = Clearance in rat after iv administration; assay type: ADME, organism-based; conditions: in vivo
[4] = Volume of distribution at steady state in human after iv administration; assay type: ADME, organism-based; conditions: in vivo; for Vd: read-out: Vdss
[5] = Volume of distribution at steady state in dog after iv administration; assay type: ADME, organism-based, Canis lupus familiaris; conditions: in vivo, read-out: Vdss
[6] = Clearance in monkey after iv administration; assay type: ADME, organism-based; conditions: macaca, in vivo
[7] = Volume of distribution at steady state in rat after iv administration; assay type: ADME, organism-based; conditions: in vivo
[8] = Volume of distribution at steady state in monkey after iv administration; assay type: ADME, organism-based; conditions: macaca, in vivo, read-out: Vdss

| Structure (SMILES) | clearance [1] | clearance [2] | clearance [3] | Vd [4] | Vd [5] | clearance [6] | Vdss [7] | Vd [8] | Vdss [4] |
| --- | --- | --- | --- | --- | --- | --- | --- | --- | --- |
| C[C@@H](O)[C@H]1C(=O)N2C(C(=O)O)=C(COC(N)=O)S[C@H]12 | 7.2 mL/min/kg | 7.7 mL/min/kg | 16 mL/min/kg | 0.25 L/kg | 0.23 L/kg | 4.7 mL/min/kg | 0.05 L/kg | 0.15 L/kg |  |
| CC1CCCC(C)N1CCCC(O)(c1ccccc1)c1ccccn1 (configuration not stated) [PIRMENOL] | 2.5 mL/min/kg | 6 mL/min/kg | 23 mL/min/kg | 1.3 L/kg | 3.3 L/kg | 5 mL/min/kg | 12 L/kg | 1.4 L/kg |  |
| CC[C@]1(O)C[C@@H]2CN(CCc3c([nH]c4ccccc34)[C@@](C(=O)OC)(c3cc4c(cc3OC)N(C)[C@H]3[C@@](O)(C(=O)OC)[C@H](OC(C)=O)[C@]5(CC)C=CCN6CC[C@]43[C@@H]65)C2)C1 [VINBLASTINE] | 12 mL/min/kg | 22 mL/min/kg | 25 mL/min/kg | 24 L/kg | 2.3 L/kg | 7 mL/min/kg | 12 L/kg | 1.5 L/kg |  |
| COc1ccc2c(c1)c(CC(=O)O)c(C)n2C(=O)c1ccc(Cl)cc1 [INDOMETHACIN] | 2 mL/min/kg | 0.002 mL/min/kg | 0.43 mL/min/kg | 0.26 L/kg | 7.4 L/kg | 13 mL/min/kg | 0.1 L/kg | 1.8 L/kg |  |
| N[C@H](C(=O)O)[C@@H]1CC(Cl)=NO1 [ACIVICIN] | 0.78 mL/min/kg | 1.3 mL/min/kg | 5.2 mL/min/kg | 0.58 L/kg | 0.5 L/kg | 3.3 mL/min/kg | 0.65 L/kg | 0.56 L/kg |  |
| CN(C)CCCC1(c2ccc(F)cc2)OCc2cc(C#N)ccc21 (configuration not stated) [CITALOPRAM] | 5 mL/min/kg | 14 mL/min/kg | 82 mL/min/kg | 14 L/kg | 10 L/kg | 39 mL/min/kg | 21 L/kg | 10 L/kg |  |
| O=C(OC1C[C@@H]2CC3C[C@@H](C1)N2CC3O)c1c[nH]c2ccccc12 (some centres not stated) | 22 mL/min/kg | 27 mL/min/kg | 94 mL/min/kg | 11 L/kg | 9.6 L/kg | 77 mL/min/kg | 15 L/kg | 28 L/kg |  |
| Nc1nc(/C(=N/O)C(=O)N[C@@H]2C(=O)N3C(C(=O)O)=C(/C=C4\CCN(CC(F)(F)F)C4=O)CS[C@H]23)cs1 [RO 25-6833] | 0.38 mL/min/kg | 2.7 mL/min/kg | 0.95 mL/min/kg | 0.12 L/kg | 0.24 L/kg | 0.78 mL/min/kg | 0.16 L/kg | 0.12 L/kg |  |
| O=c1ccc2ccccc2o1 [COUMARIN] | 17 mL/min/kg | 22 mL/min/kg | 20 mL/min/kg | 2.2 L/kg | 6.5 L/kg | 34 mL/min/kg | 1.3 L/kg | 4.5 L/kg |  |
| CO[C@@]1(NC(=O)CSCC#N)C(=O)N2C(C(=O)O)=C(CSc3nnnn3C)CS[C@@H]21 [CEFMETAZOLE] | 1.8 mL/min/kg | 5.3 mL/min/kg | 40 mL/min/kg | 0.14 L/kg | 0.24 L/kg | 3.8 mL/min/kg | 0.49 L/kg | 0.14 L/kg |  |
| CC(=O)CC(c1ccccc1)c1c(O)c2ccccc2oc1=O (configuration not stated) [WARFARIN] | 0.04 mL/min/kg | 0.3 mL/min/kg | 0.36 mL/min/kg | 0.11 L/kg | 0.28 L/kg | 0.13 mL/min/kg | 0.22 L/kg | 0.11 L/kg |  |
| NCC1(CC(=O)O)CCCCC1 [GABAPENTIN] | 1.8 mL/min/kg | 2.3 mL/min/kg | 9.5 mL/min/kg | 0.82 L/kg | 0.16 L/kg | 2.6 mL/min/kg | 1.2 L/kg | 0.68 L/kg |  |
| C[C@@H](O)[C@H]1C(=O)N2C(C(=O)[O-])=C(SC3Cn4cnc[n+]4C3)[C@H](C)[C@H]12 (some centres not stated) [BIAPENEM] | 2.7 mL/min/kg | 6.2 mL/min/kg | 16 mL/min/kg | 0.25 L/kg | 0.28 L/kg | 5.3 mL/min/kg | 0.24 L/kg | 0.23 L/kg |  |
| CO/N=C(\C(=O)N[C@@H]1C(=O)N2C(C(=O)O)=CCS[C@H]12)c1csc(N)n1 [CEFTIZOXIME] | 1.8 mL/min/kg | 3.3 mL/min/kg | 19 mL/min/kg | 0.23 L/kg | 0.1 L/kg | 5.9 mL/min/kg | 0.18 L/kg | 0.12 L/kg |  |
| C#C[C@]1(O)CC[C@H]2[C@@H]3CCc4cc(O)ccc4[C@H]3[C@@H](OC)C[C@@]21C [MOXESTROL] | 0.34 mL/min/kg | 5.2 mL/min/kg | 52 mL/min/kg | 0.24 L/kg | 0.63 L/kg | 3.2 mL/min/kg | 1.4 L/kg | 1.8 L/kg |  |
| CC1=NC(=O)C(CCN(C(C)C)C(C)C)(c2ccccc2)C2CCCCN12 (configuration not stated) [ACTISOMIDE] | 6.8 mL/min/kg | 9 mL/min/kg | 9.8 mL/min/kg | 0.58 L/kg | 1.1 L/kg | 16.4 mL/min/kg | 1.1 L/kg | 1.6 L/kg |  |
| CCCCCNC(=O)c1coc([C@H]2[C@@H](Cc3ccccc3CCC(=O)O)[C@@H]3CC[C@H]2O3)n1 [IFETROBAN] | 6.4 mL/min/kg | 65 mL/min/kg | 88 mL/min/kg | 4.4 L/kg | 11 L/kg | 19 mL/min/kg | 2.8 L/kg | 5.5 L/kg |  |
| O=[N+]([O-])O[C@H]1CO[C@H]2[C@@H]1OC[C@H]2O[N+](=O)[O-] [ISOSORBIDE DINITRATE] | 3.6 mL/min/kg | 180 mL/min/kg | 118 mL/min/kg |  | 3 L/kg | 59 mL/min/kg | 4.9 L/kg | 1.7 L/kg | 0.05 L/kg |
| CC(C)N(CCC(C(N)=O)(c1ccccc1)c1ccccn1)C(C)C (configuration not stated) [DISOPYRAMIDE] | 2.4 mL/min/kg | 29 mL/min/kg | 34 mL/min/kg | 0.78 L/kg | 2.3 L/kg | 19 mL/min/kg | 6.2 L/kg | 2 L/kg |  |
| N[C@@H](Cc1ccc(O)c(O)c1)C(=O)O [LEVODOPA] | 23 mL/min/kg | 19 mL/min/kg | 109 mL/min/kg | 1.7 L/kg | 0.4 L/kg | 17 mL/min/kg | 9.8 L/kg | 0.47 L/kg |  |
| C[C@@H](O)[C@H]1C(=O)N2C(C(=O)O)=C(S[C@@H]3CN[C@H](C(=O)N(C)C)C3)[C@H](C)[C@H]12 [MEROPENEM] | 4 mL/min/kg | 4 mL/min/kg | 47 mL/min/kg | 0.3 L/kg | 0.25 L/kg | 7 mL/min/kg | 0.3 L/kg | 0.3 L/kg |  |
| O=c1[nH]cnc2c1ncn2[C@H]1CC[C@@H](CO)O1 [DIDANOSINE] | 14 mL/min/kg | 23 mL/min/kg | 66 mL/min/kg | 0.81 L/kg | 0.95 L/kg | 12 mL/min/kg | 0.99 L/kg | 0.92 L/kg |  |
| CCC1(C)CC(=O)NC1=O (configuration not stated) [ETHOSUXIMIDE] | 0.15 mL/min/kg | 0.42 mL/min/kg | 3.1 mL/min/kg | 0.63 L/kg | 0.59 L/kg | 0.33 mL/min/kg | 0.68 L/kg | 0.82 L/kg |  |
| Cc1cccnc1NS(=O)(=O)c1ccc(C#Cc2ccc(O)c(C(=O)O)c2)cc1 [SUSALIMOD] | 0.09 mL/min/kg | 20 mL/min/kg | 62 mL/min/kg | 0.12 L/kg | 0.19 L/kg | 2 mL/min/kg | 1.2 L/kg | 0.08 L/kg |  |
